Assays:
P. stuartii = conditions: cited from earlier work; for resistance rates being reported: P. stuartii, first- and second-generation cephalosporins susceptible to its β-lactamases
P. stuartii PR500 = experiment: Level of aminoglycoside resistance of strain PR500; type: cell-based, Providencia stuartii; conditions: PR500 (PR50 containing pR401 and pACYC184.aarG)
Method: Therefore, strain PR500, which is a derivative of the wild-type P. stuartii PR50 [Rather, P. et al., J. Bacteriol. 175:6492-6498 (1993)], was used. PR500 was generated by introducing into PR50 both pR401 (aac(2′)-lacZ) and pACYC184.aarG, a compatible pACYC184 derivative containing the aarG gene. PR500 forms white colonies on plates containing X-gal and has levels of aminoglycoside resistance to 4 μg/ml of gentamicin. Selection of mutants was achieved by plating approximately 10^8 cells of PR500 on LB plates containing 15 μg/ml of gentamicin and X-gal (to select and identify regulatory mutants), ampicillin (150 μg/ml) to maintain pR401 and chloramphenicol (100 μg/ml) to maintain pACYC184.aarG. As observed previously, colonies arose at a frequency of […] [Rather, P. et al., J. Bacteriol. 175:6492-6498 (1993)]. […] While not limiting the present invention to any particular mechanism, these colonies presumably resulted from mutations in a trans-acting regulator of aac(2′)-la since expression of both the chromosomal copy of aac(2′)-la and the plasmid encoded aac(2′)-lacZ fusion were increased. One class of mutants which formed small blue colonies was identified and a representative isolate, PR60, was characterized. Introduction by electroporation (Gene Pulser, Biorad) of the previously cloned aarA, aarB, and aarD genes [Macinga, D. R. et al., Mol. Microbiol. […]

Compound | resistance rates being reported (P. stuartii) [%] | levels of aminoglycoside resistance (P. stuartii PR500) [µg/mL] | proportions of P. stuartii resistant (P. stuartii; both in wards where the drug is widely used and in others (e.g., geriatric wards) where it was not used)
Cc1nnc(SCC2=C(C(=O)O)N3C(=O)[C@@H](NC(=O)Cn4cnnn4)[C@H]3SC2)s1 [cefazolin] | 94 | – | –
CC1=C(C(=O)O)N2C(=O)[C@@H](NC(=O)[C@H](N)c3ccccc3)[C@H]2SC1 [cephalexin] | 100 | – | –
O=C(Cc1cccs1)N[C@@H]1C(=O)N2C(C(=O)[O-])=C(C[n+]3ccccc3)CS[C@H]12 [cephaloridine] | 82 | – | –
gentamicin | – | 4 | 80-100%
CC(=O)OCC1=C(C(=O)O)N2C(=O)[C@@H](NC(=O)Cc3cccs3)[C@H]2SC1 [cephalothin] | 97 | – | –

From patent US6383745B1, “Methods of screening for anti-microbial utilizing aarC and compositions thereof” (priority 1997, dated 2002)
